Each block holds one molecule with its values, some of them ahead of it.
Assays:
[1] = molecular target: NACHT, LRR and PYD domains-containing protein 3 (Homo sapiens, UniProt Q96P20); assay: Inhibition of NLRP3 inflammasome in LPS-induced […] cells assessed as reduction in IL-1beta release preincubated for 1 hr followed by ATP addition and measured after 30 mins by ELISA; assay type: cell-based
[2] = Inhibition of LPS/ATP induced IL-1beta release in human THP-1 cells at 10 uM pretreated with LPS for 3 hrs followed by compound addition for 1 hr prior to ATP addition for another 1 hr by ELISA; assay type: functional; design: scale not given: the % may be the effect or the level left; details: time 2 hrs
[3] = molecular target: T1, Glycogen synthase kinase-3 beta (Homo sapiens, UniProt P49841); assay: Inhibition of GSK3beta (unknown origin) expressed in Sf9 cells incubated for 30 mins in presence of [gamma32P]ATP by scintillation counting method
T1 sequence (P49841 whole entry): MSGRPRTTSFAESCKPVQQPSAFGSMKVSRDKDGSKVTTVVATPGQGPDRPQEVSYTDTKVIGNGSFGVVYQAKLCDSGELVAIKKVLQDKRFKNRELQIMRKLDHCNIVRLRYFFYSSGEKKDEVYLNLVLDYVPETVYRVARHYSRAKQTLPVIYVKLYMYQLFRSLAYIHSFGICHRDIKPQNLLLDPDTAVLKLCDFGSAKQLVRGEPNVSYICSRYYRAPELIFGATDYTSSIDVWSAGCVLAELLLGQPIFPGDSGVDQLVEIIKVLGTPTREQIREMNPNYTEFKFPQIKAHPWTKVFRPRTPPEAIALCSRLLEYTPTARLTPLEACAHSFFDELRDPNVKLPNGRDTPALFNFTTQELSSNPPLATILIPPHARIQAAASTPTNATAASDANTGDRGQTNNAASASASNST

[4] = molecular target: T1, Glycogen synthase kinase-3 beta; assay: Inhibition of GST-tagged GSK3beta (unknown origin)

Chain of NACHT, LRR and PYD domains-containing protein 3 (Q96P20 whole entry, the tested form may be a part): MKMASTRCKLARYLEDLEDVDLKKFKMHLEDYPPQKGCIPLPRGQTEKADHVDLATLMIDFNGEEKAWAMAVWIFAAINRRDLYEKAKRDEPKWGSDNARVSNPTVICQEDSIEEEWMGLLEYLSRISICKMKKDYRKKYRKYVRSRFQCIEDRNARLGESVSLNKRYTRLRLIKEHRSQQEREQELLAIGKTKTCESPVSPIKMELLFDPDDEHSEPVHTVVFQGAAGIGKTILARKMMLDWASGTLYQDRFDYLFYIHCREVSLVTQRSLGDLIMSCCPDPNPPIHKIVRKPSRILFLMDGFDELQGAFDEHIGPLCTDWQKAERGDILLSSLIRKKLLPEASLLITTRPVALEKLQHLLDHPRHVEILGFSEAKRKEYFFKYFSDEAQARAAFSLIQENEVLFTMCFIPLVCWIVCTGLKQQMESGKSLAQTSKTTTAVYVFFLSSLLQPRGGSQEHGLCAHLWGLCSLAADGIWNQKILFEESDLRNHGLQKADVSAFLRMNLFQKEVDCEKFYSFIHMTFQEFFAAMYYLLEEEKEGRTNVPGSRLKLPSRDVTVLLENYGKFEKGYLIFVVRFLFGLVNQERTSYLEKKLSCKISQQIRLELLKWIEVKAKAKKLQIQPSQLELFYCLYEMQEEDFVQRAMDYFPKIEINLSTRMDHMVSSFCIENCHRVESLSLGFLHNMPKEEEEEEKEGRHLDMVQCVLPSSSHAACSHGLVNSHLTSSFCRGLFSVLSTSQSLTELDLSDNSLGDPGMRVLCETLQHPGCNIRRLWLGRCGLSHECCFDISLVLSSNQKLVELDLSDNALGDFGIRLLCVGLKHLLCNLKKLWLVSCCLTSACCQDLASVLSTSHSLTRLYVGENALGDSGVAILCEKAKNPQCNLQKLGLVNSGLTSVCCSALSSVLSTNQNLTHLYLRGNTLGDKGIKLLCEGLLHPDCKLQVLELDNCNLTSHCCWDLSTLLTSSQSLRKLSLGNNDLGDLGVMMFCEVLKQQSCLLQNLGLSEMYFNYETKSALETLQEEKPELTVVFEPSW

IC50 [1]: 5000 nM
SMILES: O=c1[nH]c(-c2ccc([N+](=O)[O-])cc2)nc2ccccc12

SMILES: c1cc2[nH]c(-c3cscn3)nc2cn1
Activity [2]: 30%

IC50 [3]: 4 nM
IC50 [4]: 4 nM
SMILES: O=C1Cc2c([nH]c3ccc([N+](=O)[O-])cc23)-c2ncccc2N1

Reference: ChEMBL document CHEMBL5634086, “Small molecule inhibitors of NLRP3 inflammasome and GSK-3β in the management of traumatic brain injury: A review” (Eur J Med Chem, 2023)
